Source: paper PMC9267059, “Selective Inhibition of Murine Cytomegalovirus Viral Gene Expression by the Antiviral Peptide TAT-I24” (International Journal of Molecular Sciences, 2022)

Assays:
[1] = system: double-stranded DNA; assay: DNA binding assay (fluorescence reduction of SYBR Gold-stained plasmid DNA); conditions: three independent experiments performed in duplicates
Procedure: Binding of peptides to double-stranded DNA was determined by reduction of fluorescence from SYBR® Gold-stained plasmid DNA as described previously.

[2] = system: MCMV; assay: Luciferase assay of MCMV replication (strain delm157-luc rep) in NIH/3T3 cells; format: cell-based, murine cytomegalovirus; conditions: NIH/3T3 cells infected with MCMV, 72 h post-infection, at the concentrations tested, three independent experiments in duplicates
Procedure: NIH/3T3 cells were seeded at a density of 2 × 10^4 cells/well of a 96-well plate and allowed to attach overnight. On the next day, cells were treated with various concentrations of peptides, or cidofovir either alone or in combination with increasing concentrations of TAT-I24 and infected with MCMV strain delm157-luc rep with centrifugal enhancement twice at 800× g for 15 min. After 72 h, cells were lysed and luciferase measured using luciferase assay system (Promega; Mannheim, Germany) using a GloMax Multi instrument (Promega; Mannheim, Germany).
Curve fittings and statistics were calculated using GraphPad Prism 8 (GraphPad Software, San Diego, CA, USA). Bliss synergy scores were calculated using SynergyFinder 2.0 software (https://synergyfinder.fimm.fi (accessed on 25 June 2022)).

[3] = system: MCMV viral gene expression; assay: MCMV viral gene transcript levels by quantitative PCR relative to Gapdh; format: cell-based, murine cytomegalovirus; conditions: for ie1 transcript levels, comparison of peptides: NIH/3T3, MCMV MOI 1, 2 h post-infection
Procedure: NIH/3T3 fibroblasts were infected with MCMV expressing luciferase at low MOI (MOI 1) with the aid of centrifugal enhancement. Infections were performed either in the absence or presence of 10 µM TAT-I24. Cells were lysed after 30 min or 2-, 4-, 8- and 24-h post-infection. Total RNA was isolated and treated with DNase I to remove viral DNA before synthesis of the cDNA. Levels of viral transcripts were then analyzed by quantitative PCR and normalized to mRNA levels of the glyceraldehyde-3-phosphate dehydrogenase (Gapdh) housekeeping gene.
NIH/3T3 cells were seeded at a density of 8 × 10^4 cells/well of a 24-well plate and allowed to attach overnight. On the next day, MCMV strain delm157-luc rep was adsorbed to cells (MOI 1) in the absence or presence of 10 µM TAT-I24 and centrifuged twice at 800× g for 15 min. Cells were then kept at 37 °C and lysed after the indicated time-points.

[4] = system: mouse cytomegalovirus (CMV); conditions: cited from earlier work
[5] = system: NIH/3T3 cells; assay: Cell viability assay (Cell Titer Glo 2.0); format: cell-based; conditions: 10 µM, 48 h, Cell Titer Glo 2.0 luminescence, eight replicates per group
Procedure: NIH/3T3 cells were grown in CO2-independent medium supplemented with 10% fetal calf serum, 2 mM glutamine and 1% antibiotic-antimycotic (ThermoFisher; Darmstadt, Germany) and cultivated in a humidified atmosphere at 37 °C and passaged once a week. For determination of cell viability, NIH/3T3 cells were seeded at a density of 2 × 10^4 cells/well of a 96-well plate and treated with vehicle (DMSO) or 10 µM TAT-I24. After 48 h, cells were lysed using Cell Titer Glo 2.0 reagent (Promega; Mannheim, Germany) and luminescence recorded using a GloMax Multi instrument (Promega; Mannheim, Germany).

[6] = system: NIH/3T3 cells; conditions: 20 µM; cited from earlier work
Description: (§1) This strain was also used in the present investigation. […] However, with increasing concentrations of TAT-I24, the cytopathic effects caused by the virus infection were inhibited (Figure 1A).

[7] = system: host-cell transcripts in NIH/3T3 cells infected with MCMV; assay: Host-cell transcript levels by quantitative PCR in MCMV-infected NIH/3T3 cells; format: cell-based; conditions: for Ccl5 expression, comparison of peptides / Ccl7 expression, comparison of peptides / Ifit1 expression, comparison of peptides: MCMV MOI 1, 2 h post-infection, four independent experiments
[8] = system: MCMV viral DNA; assay: MCMV viral DNA determined by ie1 PCR from RNA extracts; format: cell-based, murine cytomegalovirus
Procedure: The levels of viral DNA in the RNA extracts were also determined by PCR using the ie1 primer pair. In peptide-treated cells, the amount of viral DNA was about 60% compared to untreated cells. The amount of viral DNA declined in both settings between 2 and 8 h. […] This is in accordance with our earlier study using detection of the luciferase gene of MCMV strain delm157-luc rep.

[9] = system: MCMV; assay: Crystal violet staining of MCMV-infected NIH/3T3 cells (cytopathic effects); format: cell-based, murine cytomegalovirus
Procedure: as §1, with “1A). […] For all further investigations, 10 µM of TAT-I24 was therefore chosen to ensure efficient inhibition of MCMV infection.” for “1A).”
NIH/3T3 cells were seeded at a density of 2 × 10^4 cells/well of a 96-well plate and allowed to attach overnight. On the next day, cells were treated with increasing concentrations of TAT-I24 and infected with MCMV strain delm157-luc rep with centrifugal enhancement twice at 800× g for 15 min. After 48 h, cells were fixed with 4% formaldehyde and stained with 1% crystal violet solution for 30 min at room temperature followed by three times washing with water. Microscopic examination was performed using a Live Cell Video Microscope (Leica Microsystems; Wetzlar, Germany).

[10] = system: human cytomegalovirus (CMV); conditions: cited from earlier work
Description: (§2) We have described the novel antiviral peptide TAT-I24, a fusion of the 9-mer peptide I24 and the TAT peptide, which exerts broad-spectrum activity against several double-stranded DNA viruses. […] The antiv ...

[11] = system: respiratory syncytial virus (RSV); conditions: cited from earlier work
Description: as §2

[12] = system: herpes simplex virus; conditions: cited from earlier work
Description: as §2

[13] = system: SV40 polyomavirus; conditions: cited from earlier work
Description: as §2

[14] = system: human immunodeficiency virus-1 (HIV-1); conditions: cited from earlier work
Description: as §2

[15] = system: some adenoviruses; conditions: cited from earlier work
Description: as §2

[16] = system: non-replicating baculovirus; conditions: mammalian cells; cited from earlier work
Description: as §2

[17] = system: vaccinia virus; conditions: cited from earlier work
Description: as §2

[18] = system: host-cell transcripts in NIH/3T3 cells infected with UV-inactivated MCMV; assay: Host-cell transcript levels in cells infected with UV-irradiated MCMV; conditions: UV-inactivated MCMV MOI 2.5, 10 µM, 2 h post-infection, three independent experiments
[19] = system: double-stranded DNA; conditions: cited from earlier work
Procedure: To determine whether reduction of host-gene expression early after MCMV infection is related to the ability of the peptide to bind DNA, variants of TAT-I24 were generated with modifications of the TAT fusion partner (Figure 5A). The peptides were tested for their potency in inhibiting MCMV replication and their binding to DNA. […] Inhibition is independent of whether these are immediate-early, early or late genes, as they were all reduced to a similar extent, thereby excluding a specific effect of the peptide on a particular viral gene.

[20] = system: BrdU-labelled MCMV DNA; assay: Staining of BrdU-labelled MCMV DNA in NIH/3T3 cells; format: cell-based, murine cytomegalovirus
Procedure: When infection of cells is performed with MCMV labelled with bromodeoxyuridine (BrdU), a clear reduction in BrdU-labelled genomes in TAT-I24-treated cells can be observed. It was speculated that this was due to the interaction of the peptide with the viral DNA, leading to the prevention of BrdU-antibody binding. This was further supported by the observation that the incubation of cells with TAT-I24 after fixation and permeabilization led to an impairment of BrdU-staining. As additional support for this concept, BrdU-labelled MCMV was adsorbed to NIH/3T3 cells at 4 °C in the absence or presence of 10 µM TAT-I24. Cells were then washed with ice-cold medium followed by transfer to 37 °C and fixation and permeabilization 30 min post-cold release. In one setting, cells were additionally treated with pepsin for 20 min at 37 °C to degrade the peptide.
NIH/3T3 cells were seeded at a density of 4 × 10^4 cells/well into ibiTreat eight-well chambers (ibidi, Gräfelfing, Germany). Bromodeoxyuridine (BrdU)-labelled virus was adsorbed to cells in the absence or presence of 10 µM TAT-I24 as described before. Pepsin treatment was performed by incubation of cells after fixation, permeabilization and denaturation with Pepsin Reagent, Ready to Use, Antigen Retriever (Merck; Schnelldorf, Germany) for 20 min. Cells were then washed twice with 1xTBE followed by three washes with PBS. […]

[21] = MCMV MOI 1, 10 µM, 2 h post-infection
[22] = MCMV MOI 1, 10 µM, 4 h post-infection
[23] = MOI comparison experiment, MOI 1 with 10 µM, 2 h post-infection, two independent experiments

RRRCLAFYACFC [TAT-M25, three amino-terminal arginine residues fused to I24]
DNA binding (fluorescence reduction of SYBR Gold-stained plasmid DNA) [1]: reduced DNA binding | antiviral activity (luciferase reporter gene expression) [2]: lack of antiviral activity

GRKKRRQRRRPPQ [TAT, reference compound]
DNA binding (fluorescence reduction of SYBR Gold-stained plasmid DNA) [1]: partial fluorescence reduction | ie1 transcript levels, comparison of peptides ([3]; four independent experiments): partial reduction | replication of mouse cytomegalovirus (MCMV) [4]: partial inhibitory effect

GRKKRRQRRRPPQCLAFYACFC [TAT-I24, antiviral peptide, a fusion of the 9-mer peptide I24 and the TAT peptide]
cytotoxic effect (cell viability assay) [5]: does not exert any cytotoxic effect | cell viability [6]: does not affect cell viability | Ccl5 transcript levels ([7]; MCMV MOI 1, 10 µM): reduction | Gadd45a mRNA levels, untreated vs peptide-treated cells ([7]; MCMV MOI 1, 10 µM): no difference | Herpud1 transcript levels, untreated vs peptide-treated cells ([7]; MCMV MOI 1, 10 µM): no differences | Top2a transcript levels ([7]; MCMV MOI 1, 10 µM): no significant effect | Ccl7 transcript levels [7, 21]: reduced | Cxcl10 transcript levels [7, 21]: reduced | Ifit1 transcript levels [7, 21]: significantly reduced | Nfkbia transcript levels [7, 21]: reduced | Ccl7 transcript levels [7, 22]: started to increase | Cxcl10 transcript levels [7, 22]: started to increase | Nfkbia mRNA levels [7, 22]: comparable between untreated and peptide-treated cells | Ifit1 mRNA levels ([7]; MCMV MOI 1, 10 µM, after 4 h): also increased in the presence of the peptide | Ccl5 expression, comparison of peptides [7]: significant reduction | Ccl7 expression, comparison of peptides [7]: significant reduction | Ifit1 expression, comparison of peptides [7]: significant reduction | viral DNA (genome copies by ie1 PCR) [8, 23]: not reflected at the level of viral DNA | viral DNA after 24 h ([8]; NIH/3T3, MCMV MOI 1, 10 µM, 24 h post-infection): remained at background levels | amount of viral DNA compared to untreated cells ([8]; NIH/3T3, MCMV MOI 1, 10 µM, ie1 PCR, three independent experiments): about 60% | effect on cell attachment and morphology ([9]; 20 µM): some effect on cell attachment and morphology | cytopathic effects caused by the virus infection ([9]; MCMV MOI 1, 48 h post-infection, increasing concentrations of TAT-I24, crystal violet staining): inhibited | replication of human cytomegalovirus [10]: inhibit replication | inhibition of RSV [11]: Partial inhibition | replication of herpes simplex virus [12]: inhibit replication | replication of SV40 polyomavirus [13]: inhibit replication | inhibition of HIV-1 [14]: Partial inhibition | replication of some adenoviruses [15]: inhibit replication | reporter gene expression from a non-replicating baculovirus [16]: reduction of reporter gene expression | replication of vaccinia virus [17]: inhibit replication | reduction of ie1 transcript levels [3, 23]: 90% | expression of spliced late gene m129/131 ([3]; NIH/3T3, MCMV MOI 1, 10 µM): reduced | gene expression of M94 (late gene) ([3]; NIH/3T3, MCMV MOI 1, 10 µM): strongly inhibited | levels of m152 transcripts (early gene) ([3]; NIH/3T3, MCMV MOI 1, 10 µM): strongly reduced | m169 mRNA levels (early gene) ([3]; NIH/3T3, MCMV MOI 1, 10 µM): strongly reduced | reduction of ie1 transcript levels compared to untreated cells ([3]; NIH/3T3, MCMV MOI 1, 10 µM, 2 h post-infection, four independent experiments): more than 90% | ie1 transcript levels, comparison of peptides ([3]; four independent experiments): significant inhibitory effect | Ccl5 transcript levels [18]: significantly reduced | Ccl7 transcript levels [18]: significantly reduced | Cxcl10 transcript levels [18]: significantly reduced | binding to DNA [19]: binds DNA with high affinity | BrdU-labelled genomes seen in cells ([20]; 10 µM during adsorption at 4 °C, 30 min post-cold release, no pepsin): almost no BrdU-labelled genomes | BrdU-antibody staining after post-fixation pepsin treatment ([20]; 10 µM during adsorption, pepsin 20 min at 37 °C after fixation and permeabilization): clear appearance of a punctate pattern | replication of mouse cytomegalovirus (MCMV) [4]: inhibit replication

GRKKRRCLAFYACFC [TAT-M26, six N-terminal amino-acid residues of the TAT peptide fused to I24]
Ccl5 expression, comparison of peptides [7]: significant reduction | Ccl7 expression, comparison of peptides [7]: significant reduction | Ifit1 expression, comparison of peptides [7]: significant reduction | ie1 transcript levels, comparison of peptides ([3]; four independent experiments): significant inhibitory effect

CLAFYACFC [I24]
binding to DNA [19]: also binds DNA

RRRPPQCLAFYACFC [TAT-M24, six C-terminal residues of the TAT peptide fused to I24]
DNA binding (fluorescence reduction of SYBR Gold-stained plasmid DNA) [1]: reduced DNA binding | antiviral activity (luciferase reporter gene expression) [2]: lack of antiviral activity
